Measured values from BindingDB's records for doi:10.7270/Q23B5XKP (Vanderbilt Screening Center for GPCRs, Ion Channels and …, 2009).
pEC50: −log10 of the molar value.

These molecules were tested against T1, Solute carrier family 12 member 5 (Homo sapiens, UniProt Q9H2X9) (assay: modulation of KCC2 K-Cl transport – cell-based, assay 2, dose response (AID 1723)). Settings: not given.
T1 sequence (Q9H2X9 whole entry): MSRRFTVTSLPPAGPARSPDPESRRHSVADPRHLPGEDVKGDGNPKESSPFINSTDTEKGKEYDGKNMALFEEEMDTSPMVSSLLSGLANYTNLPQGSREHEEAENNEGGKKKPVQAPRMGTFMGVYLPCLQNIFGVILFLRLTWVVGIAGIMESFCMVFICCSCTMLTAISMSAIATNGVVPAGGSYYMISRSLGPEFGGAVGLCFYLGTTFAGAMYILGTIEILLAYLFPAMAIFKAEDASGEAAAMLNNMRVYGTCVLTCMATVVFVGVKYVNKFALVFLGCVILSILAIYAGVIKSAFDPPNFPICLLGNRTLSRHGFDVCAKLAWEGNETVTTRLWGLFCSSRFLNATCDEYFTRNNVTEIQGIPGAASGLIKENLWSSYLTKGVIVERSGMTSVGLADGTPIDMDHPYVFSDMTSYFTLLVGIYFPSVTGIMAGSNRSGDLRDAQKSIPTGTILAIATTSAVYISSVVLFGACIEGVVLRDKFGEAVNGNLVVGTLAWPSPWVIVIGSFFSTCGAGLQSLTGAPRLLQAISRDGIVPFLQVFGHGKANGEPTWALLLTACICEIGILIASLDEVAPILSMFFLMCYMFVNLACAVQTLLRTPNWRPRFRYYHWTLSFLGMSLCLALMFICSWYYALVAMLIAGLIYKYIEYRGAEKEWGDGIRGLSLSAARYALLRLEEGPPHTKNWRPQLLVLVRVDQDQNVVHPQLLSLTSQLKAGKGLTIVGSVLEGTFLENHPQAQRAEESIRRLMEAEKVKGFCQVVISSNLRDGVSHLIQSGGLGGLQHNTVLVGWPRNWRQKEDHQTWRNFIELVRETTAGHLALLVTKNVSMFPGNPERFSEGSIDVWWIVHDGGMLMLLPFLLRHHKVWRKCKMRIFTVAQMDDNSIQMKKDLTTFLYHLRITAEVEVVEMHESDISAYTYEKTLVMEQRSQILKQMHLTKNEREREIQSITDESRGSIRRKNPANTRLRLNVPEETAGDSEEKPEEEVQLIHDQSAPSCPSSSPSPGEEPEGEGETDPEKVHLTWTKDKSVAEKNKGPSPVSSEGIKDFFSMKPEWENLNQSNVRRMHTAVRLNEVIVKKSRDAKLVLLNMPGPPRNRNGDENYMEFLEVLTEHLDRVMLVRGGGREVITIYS

**Q.** `Cc1[nH]n2c(=O)cc(C(C)C)nc2c1-c1ccccc1` was tested. Which pEC50 did it give?
**A.** 4.68

**Q.** `O=[N+]([O-])c1ccc(-c2cn(-c3ccccc3F)c(=S)[nH]2)cc1` was tested. Which pEC50 did it give?
**A.** 6.21

**Q.** `S=c1nc(-c2ccc3c(c2)CCO3)cc[nH]1` was tested. Which pEC50 did it give?
**A.** 5.21

**Q.** With `O=C1OC(c2ccc(O)cc2)(c2ccc(O)cc2)c2ccccc21` as the molecule, how does the pEC50 read?
**A.** 4.93

**Q.** How did the pEC50 turn out when `COc1ccc(Cn2c(=S)[nH]c3ccccc32)cc1` [1-(4-methoxybenzyl)-1H-benzimidazole-2-thiol] was run?
**A.** 6.40

**Q.** With `S=C(NCCc1ccccc1)NN=Cc1cccc(Cl)c1Cl` [1-[(2,3-dichlorobenzylidene)amino]-3-phenethyl-thiourea] as the molecule, how does the pEC50 read?
**A.** 5.00

**Q.** With `Fc1cccc(F)c1C=NNC(=S)Nc1cccnc1` [1-[(2,6-difluorobenzylidene)amino]-3-(3-pyridyl)thiourea] as the molecule, how does the pEC50 read?
**A.** 5.18

**Q.** With `NC(=S)NN=C1C(=O)N(Cc2ccc(F)cc2)c2ccccc21` [1-[(Z)-[1-[(4-fluorophenyl)methyl]-2-oxidanylidene-indol-3-ylidene]amino]thiourea] as the molecule, how does the pEC50 read?
**A.** 5.12

**Q.** How did the pEC50 turn out when `N=C1SCC(=O)N1c1ncc(Cc2cccc(Cl)c2)s1` [2-azanylidene-3-[5-[(3-chlorophenyl)methyl]-1,3-thiazol-2-yl]-1,3-thiazolidin-4-one] was run?
**A.** 5.54

**Q.** With `O=C(NC(=S)Nc1nc(-c2cccc([N+](=O)[O-])c2)cs1)c1ccccc1Cl` [2-chloranyl-N-[[4-(3-nitrophenyl)-1,3-thiazol-2-yl]carbamothioyl]benzamide] as the molecule, how does the pEC50 read?
**A.** 3.86

**Q.** `CCOc1ccc2nc(Sc3cc(O)n(-c4cccc(OC)c4)c3O)sc2c1` [3-(6-Ethoxy-benzothiazol-2-ylsulfanyl)-1-(3-methoxy-phenyl)-pyrrolidine-2,5-dione] was tested. Which pEC50 did it give?
**A.** 5.10

**Q.** How did the pEC50 turn out when `CCOc1cccc(C(=O)NC(=S)Nc2cccc(C)c2)c1` [3-ethoxy-N-(m-tolylthiocarbamoyl)benzamide] was run?
**A.** 5.80

**Q.** How did the pEC50 turn out when `COC(=O)[C@@H](NC(=O)O[C@@H]1C(=O)c2ccc(OC)cc2O[C@H]1c1cccc(C(F)(F)F)c1)C(C)C` [(2S)-2-[[(2S,3S)-4-keto-7-methoxy-2-[3-(trifluoromethyl)phenyl]chroman-3-yl]oxycarbonylamino]-3-methyl-butyric acid methyl ester] was run?
**A.** 6.29

**Q.** How did the pEC50 turn out when `Oc1ccccc1CN=Nc1nc2ccccc2o1` [(6E)-6-[(1,3-benzoxazol-2-ylhydrazo)methylidene]-1-cyclohexa-2,4-dienone] was run?
**A.** 4.51

**Q.** How did the pEC50 turn out when `Cc1cccc(N2CCN(C(=O)CCCn3c(=S)[nH]c4cc5c(cc4c3=O)OCO5)CC2)c1C` [MLS000095366] was run?
**A.** 4.95

**Q.** With `CC(C)c1ccc(OCC(=O)NNC(=O)c2cnccn2)cc1` [MLS000332605] as the molecule, how does the pEC50 read?
**A.** 4.81

**Q.** How did the pEC50 turn out when `O=C(C=Cc1ccccc1)CC(=O)c1ccccc1O` [MLS000627068] was run?
**A.** 4.20

**Q.** With `CC(=NNC(=O)c1ccc2c(c1)OCO2)c1ccc(Br)s1` [MLS000666595] as the molecule, how does the pEC50 read?
**A.** 3.14

**Q.** How did the pEC50 turn out when `COc1cc(NC(=S)NC(=O)c2ccco2)ccc1NC(=O)C(C)C` [MLS000672338] was run?
**A.** 5.10

**Q.** With `CC(=O)c1cccc(NC(=S)NC(=O)c2ccc(C)cc2)c1` [MLS000687464] as the molecule, how does the pEC50 read?
**A.** 5.92

**Q.** How did the pEC50 turn out when `O=c1c2ccccc2[nH]c(=S)n1CCN1CCC(=C(c2ccc(F)cc2)c2ccc(F)cc2)CC1` [SMR000058550] was run?
**A.** 4.88

Same assay, conditions: inactive by the depositor's call

**Q.** With `Cc1ccc(-c2n[nH]c(=S)n2NC=CCc2ccccc2[N+](=O)[O-])cc1` as the molecule, how does the pEC50 read?
**A.** 6.09

**Q.** How did the pEC50 turn out when `COc1ccccc1N1CCN(C(=S)NC(=O)/C=C/c2ccccc2)CC1` [(E)-N-[4-(2-Methoxy-phenyl)-piperazine-1-carbothioyl]-3-phenyl-acrylamide] was run?
**A.** 5.87

**Q.** `O=C(NC(=S)Nc1cccc2cccnc12)c1cccs1` [MLS000688132] was tested. Which pEC50 did it give?
**A.** 6.91
